# Test results published in US9981997B2, “Chemical reagents for attaching affinity molecules on surfaces” (ARIZONA BOARD OF REGENTS ON BEHALF OF ARIZONA STATE …, priority 2013, dated 2018).
# Values joined by “and” are separate entries in the source; they are usually repeats but may differ in a detail not shown here. Identical values can stand only once.
# Assays:
# [1] = Ellipsometric thickness of monolayers on silicon oxide; format: physicochemical; details: organic layer on silicon oxide, ellipsometry
# Procedure: (§1) A silicon substrate (1×1 cm2) was cleaned thoroughly with ethanol, dried by nitrogen, and then treated with oxygen plasma for two minutes using Harrick Plasma Cleaner (medium power). APTES was deposited on the substrate using a vapor deposition method (H. Wang, et al. Biophys. J., 2002, 83, 3619-3625). The aminated substrate was immersed in a solution of compound 2 (1 mg/mL). NHS/EDC (1 mg each) and triethyl amine (5 μL) in dry dicholoromethane. After three hours, the substrates were taken out and rinsed with dry dichloromethane (twice) followed by ethanol (twice) and dried with argon.
# (§2) A silicon substrate (1×1 cm2) was cleaned as described with respect to reactions 1-a nd 1-b, and then immersed in an aq. solution of silatrane derivative 3 (50 mM). After one hour, the substrates were taken out and rinsed five times with deionized water and dried with argon.
# (§3) Contact angles were measured using Kruss EasyDrop. For the measurement, 2 μL of water droplets were deposited on different positions of a substrate placed on the sample plate and contact angles were measured in the video window of manufacturer's DSA software. Thicknesses of the monolayers were measured using Gaertner Scientific Corporation ellipsometer. For the thickness calculation, the refractive indices of both silicon oxide layers and organic layers were assumed to be 1.46 (T. Nguyen et al. J. Adhesion, 1995, 48, 169-194). Five different arbitrary positions on the substrate were chosen and the average value was taken. The thickness of the monolayer was determined by subtracting the silicon oxide thickness from the measured one.
# [2] = Water contact angle of derivatized silicon oxide surfaces; format: physicochemical; details: water on derivatized silicon oxide surface
# Procedure: as §1, §2, §3
# [3] = AFM force measurement: non-specific interaction with bare mica; format: binding; details: bare mica substrate
# Source text: (§4) Non-specific interactions between functionalized AFM tips with both bare and bovine serum albumin (BSA) immobilized mica substrates were examined. The functionalized AFM tips generally formed featureless force-distance curves on these surfaces. Only 6.1% of collected curves show unbinding ruptures from the nonspecific TBA-BSA interaction (median force 14.4 pN) and 5.6% from the nonspecific RGD-BSA interaction (median force 15.3 pN) around the expected distance, respectively. The functionalized tips interacted with the bare mica surfaces with even lower statistics and smaller unbinding forces.
# (§5) An Agilent AFM 5500 (with inverted light microscope) system was used for the AFM experiments. Both force measurement and recognition imaging were carried out in 1×PBS buffer (pH 7.4). For force measurements, Veeco probes (Bicker, SiN tips) were used, having a force constant 0.05 N/m and a gold back coating, and the loading rate was 25000 pN/s.
# (§6) Topography images, recognition images and force spectra were recorded using Agilent PicoView software. The force-distance curves were analyzed in PicoView, and the corresponding unbinding forces were plotted in the form of histograms and fitted into the Gaussian function using MathWorks-MATLAB.
# [4] = biological target: bovine serum albumin (BSA) (Bos taurus, UniProt P02769); test: AFM force measurement: non-specific interaction with BSA immobilized mica; format: binding; details: BSA on the substrate (non-specific control)
# Source text: as §4
# Freshly cleaved mica sheets (1.5×2.0 cm^2) were immersed in an aqueous solution of APS (50 mM). After one hour, the mica sheets were taken out and rinsed thoroughly with water thrice. In a humid surrounding, an aqueous solution of glutaraldehyde (1 mM, 200 μL) was added on the APS mica sheet. After 10 minutes, the mica substrates were rinsed with water thrice, and then a solution of protein in a 1×PBS buffer (3 μL) was placed on it, incubated for one hour, and rinsed with the 1×PBS buffer thrice. In general, protein concentrations were made around 10 ng/μL for force measurements and 0.05 ng/μL for recognition imaging. It should be noted that integrin we used was a lyophilized product from a solution containing: 0.26 mg/ml α5β1, 20 mM Tris-HCl pH 7.5, 150 mM NaCl, 2 mM MgCl2, 0.2% Triton X-100, which was reconstituted by dissolving it in 1×PBS buffer.
# as §5, §6
# human α-thrombin = biological target: T1, human α-thrombin (Homo sapiens, UniProt P00734); test: AFM force measurement: unbinding of tip-tethered affinity molecule from thrombin immobilized on mica; format: binding
# T1 construct: protein cognates human α-thrombin and human α5β1-integrin immobilized on mica surfaces; purchased Abeam (so in the source)
# Source text: (§7) The attachment chemistry was validated using the functionalized SiN tips to measure forces of affinity molecules unbinding from their respective protein cognates. The protein sample was immobilized on APS-modified mica substrate using glutaraldehyde as a crosslinker (for procedure, see Wang, et al. Biophys. J. 2002, 83, 3619-3625). Initially, about 1000 force-distance curves were collected from each of measurement experiments with either D-1b against thrombin or P-1b against integrin α5β1. The solid lines in Panel A and D of FIG. 14 show exemplary retracting force-distance curves used for data analysis, which accounts for more than one fourth of the collections. The selection was based on an assumption that a rupture directly related to unbinding of an affinity molecule from its protein cognate is likely to take place around the distance corresponding to the stretched length of a PEG linker (˜13.5 nm in this instance). A distance histogram was created from each data set (Panel B and E of FIG. 14). […] Ratios of the rupture events between these two regions were 1:1.2 for the TBA tip against the thrombin protein and 1:1.3 for the RGD tip against the integrin protein respectively. After finishing the initial measurements, a thrombin or integrin solution was injected to the flow cell accordingly, and then another set of force curves were collected to determine the specificity of unbinding (see, for example, Lee, et al. Micron 2007, 38, 446-461). A disappearance of the specific unbinding ruptures from the force-distance curves was anticipated because the interactions of the affinity molecule tethered to the tip with its cognates on the substrate were blocked by protein from the solution. In fact, force-distance curves were obtained appearing like the dotted lines in Panel A and D of FIG. 14. Overall, the ruptures around the longer distances were reduced to a great extent and those around the shorter distances remained (Panel C and F of FIG. 14) in comparison with those prior to blocking. The rupture ratios between these two regions were changed to 12.3:1 for the TBA tip against the thrombin modified surface and 12:1 for the RGD tip against the integrin modified surface.
# (§8) AFM tips (a batch of four or five) were first immersed in ethanol for five minutes, dried with ultrapure argon, and then treated with ultraviolet-ozone in a Boekel UV cleaner for 15 minutes and oxygen plasma (medium power) in a Harrick Plasma Cleaner for 2 minutes. These tips were immediately placed in a petri dish, to which an aqueous solution of compound 3 (50 mM) was added. After one hour, the tips were taken out, rinsed with water thrice, and dried gently with nitrogen. […]
# human α5β1 integrin = biological target: T2, human α5β1 integrin (Homo sapiens, UniProt P05556+P08648); test: AFM force measurement: unbinding of tip-tethered affinity molecule from integrin immobilized on mica; format: binding
# T2 construct: purchased YO Proteins AB (Sweden)
# Source text: as §7, §8
# [5] = Stability of linkers, NMR monitoring and storage; format: physicochemical; details: for stability by NMR monitoring: pure form and in chloroform, room temperature, at least two days; for storage stability: stored at −78° C. for one year
# Source text: The molecular anchor (3) was synthesized simply by reacting APS (1) with 2-(cyclooct-2-yn-1-yloxy)acetic acid (2) in the presence of 1-ethyl-3-(3-dimethylaminopropyl)carbodiimide (EDC, FIG. 10). The desired product was separated as a white solid by silica gel chromatography with a yield of 60%. The molecular linker for RI (6a, FIG. 4) was synthesized starting from hexaethylene glycol. First, azido-(CH2CH2O)6-Ts (4, Ts=tosyl) was synthesized in a multi-gram scale (Loiseau, F. A. et al. J. Org. Chem. 2004, 69, 639-647; Svedhem, S.; et al. J. Org. Chem. 2001, 66, 4494-4503). The azido-(CH2CH2O)12—OH (5) was prepared in a 71% yield by reacting 4 with sodium hexaethylene glycoxide (3 times excess) that was generated in situ by treating hexaethylene glycol with sodium hydride. In presence of potassium t-butoxide, 5 reacted with divinyl sulfone to furnish the desired product 6a in a yield of 64%. In the same manner, the linker azido-(CH2CH2O)36-vinyl sulfone (6b) was synthesized by reacting azido-dPEG®—alcohol with divinyl sulfone in a yield close to that of 6a (FIG. 5). These two products were characterized with FTIR, NMR, and mass spectroscopy. Although vinyl sulfones may react with azides in presence of CuSO4 and sodium ascorbate, it was determined by NMR monitoring that 6a and 6b were stable both in its pure form and in chloroform at room temperature at least for two days. […] Maleimide is another reactive group that is functionally similar to vinyl sulfone in bioconjugation, but it may be less amenable to coexisting with azide because a [3+2]cycloaddition could spontaneously take place between these two functions in some circumstances. In addition, maleimide can undergo the thiol exchanges and ring hydrolysis (above pH 8), which may complicate outcomes of the conjugating reaction. Thus, vinyl sulfone was chosen as a Michael addition receptor of thiols in this attachment chemistry.
# [6] = tip blocked with thrombin solution, thrombin on mica
# [7] = tip blocked with integrin solution, integrin on mica
# T2 sequence (P08648 42-894 limits assumed): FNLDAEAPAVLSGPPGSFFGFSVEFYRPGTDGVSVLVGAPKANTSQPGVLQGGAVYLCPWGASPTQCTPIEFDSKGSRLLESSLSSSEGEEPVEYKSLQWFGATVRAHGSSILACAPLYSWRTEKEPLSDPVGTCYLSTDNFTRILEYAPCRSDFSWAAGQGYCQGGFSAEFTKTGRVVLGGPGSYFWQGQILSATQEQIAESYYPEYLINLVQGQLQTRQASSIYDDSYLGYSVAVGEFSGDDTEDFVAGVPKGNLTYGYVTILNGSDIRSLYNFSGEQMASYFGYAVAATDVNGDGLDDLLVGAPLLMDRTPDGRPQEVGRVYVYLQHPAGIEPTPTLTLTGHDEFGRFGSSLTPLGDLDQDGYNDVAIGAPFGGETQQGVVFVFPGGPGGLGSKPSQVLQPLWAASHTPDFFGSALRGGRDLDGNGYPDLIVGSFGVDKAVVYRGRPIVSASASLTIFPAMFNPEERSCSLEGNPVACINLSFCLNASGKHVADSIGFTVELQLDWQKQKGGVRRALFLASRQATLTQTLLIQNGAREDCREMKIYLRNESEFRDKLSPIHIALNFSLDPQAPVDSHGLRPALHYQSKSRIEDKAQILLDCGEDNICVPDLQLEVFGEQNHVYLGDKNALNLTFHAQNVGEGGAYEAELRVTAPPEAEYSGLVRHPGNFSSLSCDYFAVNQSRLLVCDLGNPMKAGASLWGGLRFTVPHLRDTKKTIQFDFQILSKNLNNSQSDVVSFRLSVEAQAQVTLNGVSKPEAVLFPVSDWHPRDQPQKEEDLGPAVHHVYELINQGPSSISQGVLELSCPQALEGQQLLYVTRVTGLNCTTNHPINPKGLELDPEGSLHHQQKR
# T2 sequence (P08648 895-1049 partner limits assumed): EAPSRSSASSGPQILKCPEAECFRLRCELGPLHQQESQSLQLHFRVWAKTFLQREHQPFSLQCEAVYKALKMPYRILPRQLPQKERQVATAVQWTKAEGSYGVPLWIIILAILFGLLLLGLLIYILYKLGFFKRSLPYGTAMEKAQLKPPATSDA
# T2 sequence (P05556 21-798): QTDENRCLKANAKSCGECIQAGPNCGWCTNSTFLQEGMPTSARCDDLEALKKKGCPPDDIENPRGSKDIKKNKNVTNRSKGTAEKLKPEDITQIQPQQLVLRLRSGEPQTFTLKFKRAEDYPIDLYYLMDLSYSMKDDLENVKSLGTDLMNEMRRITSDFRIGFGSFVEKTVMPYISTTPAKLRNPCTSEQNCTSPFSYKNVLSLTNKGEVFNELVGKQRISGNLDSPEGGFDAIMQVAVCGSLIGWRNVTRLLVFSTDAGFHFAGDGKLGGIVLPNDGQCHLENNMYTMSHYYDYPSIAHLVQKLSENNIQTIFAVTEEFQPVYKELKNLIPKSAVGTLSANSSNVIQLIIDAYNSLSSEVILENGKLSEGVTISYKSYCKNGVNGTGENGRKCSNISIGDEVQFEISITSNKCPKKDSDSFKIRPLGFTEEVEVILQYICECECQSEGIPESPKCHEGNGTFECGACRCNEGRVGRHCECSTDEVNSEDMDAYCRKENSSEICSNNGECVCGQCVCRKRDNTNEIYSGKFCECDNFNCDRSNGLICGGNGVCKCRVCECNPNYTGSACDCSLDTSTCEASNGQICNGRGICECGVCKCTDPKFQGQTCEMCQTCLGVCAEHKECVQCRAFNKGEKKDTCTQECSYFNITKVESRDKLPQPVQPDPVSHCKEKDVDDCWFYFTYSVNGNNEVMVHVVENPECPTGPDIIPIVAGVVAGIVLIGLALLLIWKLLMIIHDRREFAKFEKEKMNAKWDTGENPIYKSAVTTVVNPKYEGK
# Sequence of bovine serum albumin (BSA) (P02769 25-607): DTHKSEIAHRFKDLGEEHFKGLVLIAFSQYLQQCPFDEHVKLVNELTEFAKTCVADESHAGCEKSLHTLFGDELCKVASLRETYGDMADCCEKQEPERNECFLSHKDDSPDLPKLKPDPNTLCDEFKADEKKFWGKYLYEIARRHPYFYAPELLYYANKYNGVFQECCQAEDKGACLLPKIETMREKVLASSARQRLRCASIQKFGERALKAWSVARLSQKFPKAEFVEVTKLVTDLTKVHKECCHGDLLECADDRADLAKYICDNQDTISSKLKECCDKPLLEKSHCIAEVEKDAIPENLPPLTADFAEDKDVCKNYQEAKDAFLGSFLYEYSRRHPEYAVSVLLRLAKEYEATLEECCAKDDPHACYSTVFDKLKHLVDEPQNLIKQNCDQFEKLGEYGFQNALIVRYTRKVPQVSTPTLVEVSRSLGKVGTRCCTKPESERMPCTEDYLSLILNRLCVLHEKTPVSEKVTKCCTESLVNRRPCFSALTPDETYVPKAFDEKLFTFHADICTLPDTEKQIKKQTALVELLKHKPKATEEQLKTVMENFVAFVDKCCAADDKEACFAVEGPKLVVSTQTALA
molecule,measurement,setting,value
"CCO[Si](CCCN)(OCC)OCC [APTES, (3-Arninopropyl)triethoxysilane]",Thickness (Å),[1],about 7.3 Å
same,Contact Angle (°),[2],~46 °
5′-GGTTGGTGTGGTTGG [TBA],Unbinding events (%),[3],3.0%
same,Unbinding force (pN),[3],6.9 ± 3.8 pN
same,Unbinding events (%),[4],6.1%
same,Unbinding force (pN),[4],14.4 pN and 14.4 ± 9.4 pN
same,Unbinding force (pN),"human α-thrombin; functionalized SiN tip against thrombin on mica, Gaussian fit of force histogram, loading rate 25000 pN/s",80.2 ± 34.5 pN
same,Unbinding events (%),"human α-thrombin; functionalized SiN tip against thrombin on mica, ruptures around the specific unbinding distance over total force curves",26.5%
same,Unbinding events (%),human α-thrombin; [6],7.0%
same,Unbinding force (pN),human α-thrombin; [6],15.6 ± 12.9 pN
cyclo(RGDfC),Unbinding events (%),human α5β1 integrin; functionalized SiN tip against integrin on mica,29.4%
same,Unbinding force (pN),"human α5β1 integrin; functionalized SiN tip against integrin on mica, Gaussian fit, loading rate 25000 pN/s",48.0 ± 27.8 pN
same,Unbinding events (%),human α5β1 integrin; [7],6.7%
same,Unbinding force (pN),human α5β1 integrin; [7],11.1 ± 10.7 pN
same,Unbinding events (%),[3],2.5%
same,Unbinding force (pN),[3],6.7 ± 4.0 pN
same,Unbinding events (%),[4],5.6%
same,Unbinding force (pN),[4],15.3 pN and 15.3 ± 14.4 pN
"C=CS(=O)(=O)CCOCCOCCOCCOCCOCCOCCOCCOCCOCCOCCOCCOCCN=[N+]=[N-] [6a, 1-Azido-35-(2-(vinylsulfonyl)ethoxy)-3n33^3-undecaoxapentatriacontane]",stability by NMR monitoring,[5],stable
same,storage stability,[5],no degradation has been observed
"O=C(O)COC1C#CCCCCC1 (centres unmarked) [compound 2, 2-(cyclooct-2-yn-1-yloxy)acetic acid]",Thickness (Å),[1],~15.9 Å
same,Contact Angle (°),[2],76 °
"O=C(COC1C#CCCCCC1)NCCC[Si-]123OCC[N+]1(CCO2)CCO3 (centres unmarked) [compound 3, N-(3-(silatranyl)propyl)-2-(cyclooct-2-yn-1-yloxy)acetamide]",Thickness (Å),[1],15.3 Å
same,Contact Angle (°),[2],~78 °
"C=CS(=O)(=O)CCOCCOCCOCCOCCOCCOCCOCCOCCOCCOCCOCCOCCOCCOCCOCCOCCOCCOCCOCCOCCOCCOCCOCCOCCOCCOCCOCCOCCOCCOCCOCCOCCOCCOCCOCCOCCN=[N+]=[N-] [6b, 1-Azido-35-(2-(vinylsulfonyl)ethoxy)-3n105^3-pentatricontaoxaheptahectane]",stability by NMR monitoring,[5],stable
same,storage stability,[5],no degradation has been observed
